Columns and labels:
[1] = tested on: ivy-leaved morning glory (Ipomoea hederacea, IPOHE); test: Test A pre-emergence, ivy-leaved morning glory; type: in vivo; conditions: after 13 d
Summary of the method: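 Pots of soil sown, sprayed at day 1 post-sowing: test compound at 15.625/62.5/250 g/ha in acetone:water 1:1 + 0.5% Tween 20. Glasshouse 24/16° C., 14 h light, 65% RH, watering twice daily. Readout: % damage after 13 d.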

plants = test: Test D post-emergence, other plants of Tables D2 and D4; type: in vivo; conditions: for damage to plant (100=total damage to plant; 0=no damage to plant), ABUTH: post-emergence
Protocol: A formulation containing 50 g/L of the test chemical was prepared by dissolving the active ingredient in a mixture of organic solvents and emulsifier, details of which are provided in the table. This formulation was then mixed with a small, variable amount of acetone to aid dissolution, before addition of a 0.2% v/v aqueous solution of an adjuvant, as the aqueous diluent, to form an aqueous spray solution which contains a predetermined concentration of the active ingredient.
This aqueous spray solution was then sprayed onto plants including maize and wheat that had been seed treated with a herbicide safener, after one day's cultivation (for pre-emergence) or after about 12 days' cultivation (for post-emergence). The plants were grown from seeds sown in standard soil, placed in a glasshouse under controlled conditions (at 24/18° C. or 20/16° C., day/night; 16 h light; 65% humidity). After spray application the plants were then grown in a glasshouse under the same conditions and watered twice daily. After 15 d for post-emergence and 20 DAA for pre-emergence the test was evaluated (100=total damage to plant; 0=no damage to plant).

[2] = "Cereals" Postemergent, Rates 130, evaluated after 15 d
[3] = "Cereals" Postemergent, Rates 250, evaluated after 15 d
[4] = "Cereals" Postemergent, Rates 500, evaluated after 15 d

Compound: CN1CC(c2cc(C(F)(F)F)n(C)n2)C(C(=O)Nc2ccc(F)cc2F)C1=O (racemic) [Compound 6]
- damage to plant (100=total damage; 0=no damage) IPOHE ([1]; Pre-Emergence at 15.625 g/ha): 0
- damage to plant (100=total damage; 0=no damage) IPOHE ([1]; Pre-Emergence at 62.5 g/ha): 0
- damage to plant (100=total damage; 0=no damage) IPOHE ([1]; Pre-Emergence at 250 g/ha): 10
- ALOMY damage rating (100=total damage to plant; 0=no damage to plant) (plants; [2]): 0
- ALOMY damage rating (100=total damage to plant; 0=no damage to plant) (plants; [3]): 0
- ALOMY damage rating (100=total damage to plant; 0=no damage to plant) (plants; [4]): 0
- AVEFA damage rating (100=total damage to plant; 0=no damage to plant) (plants; [2]): 0
- AVEFA damage rating (100=total damage to plant; 0=no damage to plant) (plants; [3]): 0
- AVEFA damage rating (100=total damage to plant; 0=no damage to plant) (plants; [4]): 10
- BEAVA damage rating (100=total damage to plant; 0=no damage to plant) (plants; [2]): 0
- BEAVA damage rating (100=total damage to plant; 0=no damage to plant) (plants; [3]): 0
- BEAVA damage rating (100=total damage to plant; 0=no damage to plant) (plants; [4]): 0
- BROTE damage rating (100=total damage to plant; 0=no damage to plant) (plants; [2]): 0
- BROTE damage rating (100=total damage to plant; 0=no damage to plant) (plants; [3]): 0
- BROTE damage rating (100=total damage to plant; 0=no damage to plant) (plants; [4]): 10
- BRSNN damage rating (100=total damage to plant; 0=no damage to plant) (plants; [2]): 0
- BRSNN damage rating (100=total damage to plant; 0=no damage to plant) (plants; [3]): 0
- BRSNN damage rating (100=total damage to plant; 0=no damage to plant) (plants; [4]): 10
- CHEAL damage rating (100=total damage to plant; 0=no damage to plant) (plants; [2]): 0
- CHEAL damage rating (100=total damage to plant; 0=no damage to plant) (plants; [3]): 0
- CHEAL damage rating (100=total damage to plant; 0=no damage to plant) (plants; [4]): 0
- GALAP damage rating (100=total damage to plant; 0=no damage to plant) (plants; [2]): 0
- GALAP damage rating (100=total damage to plant; 0=no damage to plant) (plants; [3]): 10
- GALAP damage rating (100=total damage to plant; 0=no damage to plant) (plants; [4]): 20
- HORVW damage rating (100=total damage to plant; 0=no damage to plant) (plants; [2]): 0
- HORVW damage rating (100=total damage to plant; 0=no damage to plant) (plants; [3]): 10
- HORVW damage rating (100=total damage to plant; 0=no damage to plant) (plants; [4]): 30
- KCHSC damage rating (100=total damage to plant; 0=no damage to plant) (plants; [2]): 0
- KCHSC damage rating (100=total damage to plant; 0=no damage to plant) (plants; [3]): 0
- KCHSC damage rating (100=total damage to plant; 0=no damage to plant) (plants; [4]): 10
- LOLPE damage rating (100=total damage to plant; 0=no damage to plant) (plants; [2]): 0
- LOLPE damage rating (100=total damage to plant; 0=no damage to plant) (plants; [3]): 0
- LOLPE damage rating (100=total damage to plant; 0=no damage to plant) (plants; [4]): 0
- POAAN damage rating (100=total damage to plant; 0=no damage to plant) (plants; [2]): 0
- POAAN damage rating (100=total damage to plant; 0=no damage to plant) (plants; [3]): 0
- POAAN damage rating (100=total damage to plant; 0=no damage to plant) (plants; [4]): 10
- POLCO damage rating (100=total damage to plant; 0=no damage to plant) (plants; [2]): 0
- POLCO damage rating (100=total damage to plant; 0=no damage to plant) (plants; [3]): 0
- POLCO damage rating (100=total damage to plant; 0=no damage to plant) (plants; [4]): 0
- SINAR damage rating (100=total damage to plant; 0=no damage to plant) (plants; SINAR, "Cereals" Postemergent, Rates 500, evaluated after 15 d): 40
- STEME damage rating (100=total damage to plant; 0=no damage to plant) (plants; [2]): 0
- STEME damage rating (100=total damage to plant; 0=no damage to plant) (plants; [3]): 0
- STEME damage rating (100=total damage to plant; 0=no damage to plant) (plants; [4]): 10
- VERPE damage rating (100=total damage to plant; 0=no damage to plant) (plants; [2]): 0
- VERPE damage rating (100=total damage to plant; 0=no damage to plant) (plants; [3]): 10
- VERPE damage rating (100=total damage to plant; 0=no damage to plant) (plants; [4]): 20
- damage to plant (100=total damage to plant; 0=no damage to plant), ABUTH (plants; rate 130, evaluated after 15 d): 0
- damage to plant (100=total damage to plant; 0=no damage to plant), ABUTH (plants; rate 250, evaluated after 15 d): 10
- damage to plant (100=total damage to plant; 0=no damage to plant), ABUTH (plants; rate 500, evaluated after 15 d): 20
